In one assay the test system is PL45 cells. Nature of the assay: MTT bioactivity assay (cell viability). In kind it is cell-based, human. The settings on record: 72 hours incubation. The method, then: A 3-(4,5-Dimethylthiazol-2-yl)-2,5-Diphenyltetrazolium Bromide (MTT) (Thermo Fisher Scientifc, NY, USA) assay was used to test the bioactivity of NOTA-Dimer-San A cyclodecapeptide. PL45 cells (5000 cells) were seeded in a 96-well plate and incubated overnight. […]. Each concentration was performed in triplicate, and the drug was incubated with the cells for 72 hours. Then 10 μL of MTT (5 mg/mL) was added into each well, incubated for 4 hours until a purple precipitate was visible, and then 100 μL of a detergent reagent was added and incubated until the crystal was dissolved. Finally, the optical density (proportional to the number of live cells) was assessed with a Synergy H1 Hybrid Reader (BioTek® Instruments Inc., Winooski, Vermont, USA) at 570 nm. The cell viability (%) was calculated with GraphPad Prism 5.0 software (GraphPad Software Inc., San Diego, CA, USA).
Background: Formazan colour is commonly taken as a measure of viable cells.

A further assay concerns the target T1, Hsp90 in PL45 cells (Homo sapiens, UniProt P07900).
T1 construct: endogenous in cells; host or cells: PL45 cells
Nature of the assay: Confocal cell immunofluorescence. The settings on record: biotin-peptide detected with Cy5 labeled avidin, anti-Hsp90α antibody co-stain. In kind it is cell-based. On the procedure: PL45 cells (3-5 × 10^5) were seeded in a confocal plate with 500 µL of culture medium and incubated for 24 hours at 37°C with 5% CO2. The cell culture medium was then removed, and the cells were rinsed 3 times using phosphate buffered saline (PBS). The cells were fixed using 400 µL of 4% paraformaldehyde (pH 7.4) for 20 minutes at room temperature (RT, ~20°C). Then 500 µL of 3% Bovine Serum Albumin (BSA) (Sigma-Aldrich Corp., St. Louis, MO, USA) was added and incubated for 30 minutes at RT for blocking. The cells were washed and then 250 µL of diluted anti-hsp90α antibody (1:250) or biotine-Dimer-San A peptide was added and incubated for 24 hours at 4°C. The cells were washed, and the desired concentration of the fluorescent-dye-labeled secondary antibody (Abcam, Cambridge, UK) or Cy5 labeled avidin (Vector Laboratories, Burlingame, CA, USA) was added and protected from light at RT for 60 minutes. The supernatant was discarded, and the cells were washed, then a drop of antifade mounting medium with DAPI (Vector Laboratories, Burlingame, CA, USA) was added and incubated for 45 minutes. The target antigen was visualized by confocal fluorescence microscopy Zeiss LSM 880 Airyscan (Carl Zeiss AG, Oberkochen, Germany).

Assay [1] concerns pancreatic cancer PL45 cells. The arrangement: method as in PMID 20014866, PMID 29202402. The settings on record: read-out: IC50 (inhibition of pancreatic cancer PL45 cells); cited from earlier work.

By IC50 is commonly meant the concentration at which inhibition is half-maximal. With `C=CCNC1=C2C[C@@H](C)C[C@H](OC)[C@H](O)[C@@H](C)/C=C(\C)[C@H](OC(N)=O)[C@@H](OC)/C=C\C=C(/C)C(=O)NC(=CC1=O)C2=O` [17AAG, 17-allylaminogeldanamycin], the IC50 in the assay on PL45 cells is 127 nM.
Take “Dimer-Sansalvamide A cyclodecapeptide [Dimer-San A]”: on Hsp90 in PL45 cells, the “binding / co-localization with Hsp90 (confocal immunofluorescence)” value is recorded as “bound to the Hsp90 target”. Moreover, in assay [1], the IC50 was 1 to 20 nM.
